Laboratory results taken from patent publication US9708314B2, “Heterocyclic amide compound” (NISSAN CHEMICAL INDUSTRIES, LTD., priority 2013, dated 2017).

How the values were obtained:
Format in all cases: in vivo
[1] = system: Echinochloa oryzacola Vasing.; test: Test Example 1: herbicidal activity, application before weed generation in submerged conditions; settings: Seventeenth Table; for A: Echinochloa oryzicola Vasing. (herbicidal effect grade): Application herbicide amount 320 g/ha
Outline: (§1)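 Submerged pot test: alluvial soil, 4 cm water, seeds sown mixed, 2.5-leaf rice transplanted; emulsion in water applied to surface day of sowing, dose g/ha; greenhouse 25–30° C.; 3 wk; 0–5 rating.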

[2] = system: Monochoria vaginalis; test: as above; settings: Seventeenth Table; for C: Monochoria vaginalis (herbicidal effect grade): Application herbicide amount 320 g/ha
Outline: as §1

[3] = system: Scirpus juncoides; test: as above; settings: Seventeenth Table; for B: Scirpus juncoides (herbicidal effect grade): Application herbicide amount 320 g/ha
Outline: as §1

[4] = system: Abutilon theophrasti; test: Test Example 4: herbicidal effect by application to foliage (diluvial soil, plastic box); settings: 320 g/ha; for M (Abutilon theophrasti) herbicidal effect grade: foliage application
Outline: (§2)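 Read-out is a 0–5 visual grade of herbicidal ratio (5: ≥90%, almost withered; 0: ≤5%) taken three weeks after treatment. Compound was applied as a diluted emulsion to stem and leaf parts of 14-day greenhouse-grown plants (25° C. to 30° C.) at rates expressed as g/ha.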

[5] = system: Alopecurus myosuroides; test: as above; settings: 320 g/ha; for J (Alopecurus myosuroides) herbicidal effect grade: foliage application
Outline: as §2

[6] = system: Amaranthus retroflexus; test: as above; settings: 320 g/ha; for N (Amaranthus retroflexus) herbicidal effect grade: foliage application
Outline: as §2

[7] = system: Apera spica-venti.; test: as above; settings: 320 g/ha; for L (Apera spica-venti.) herbicidal effect grade: foliage application
Outline: as §2

[8] = system: Avena fatua; test: as above; settings: 320 g/ha; for I (Avena fatua) herbicidal effect grade: foliage application
Outline: as §2

[9] = system: Chenopodium album; test: as above; settings: 320 g/ha; for O (Chenopodium album) herbicidal effect grade: foliage application
Outline: as §2

[10] = system: Digitaria ciliaris; test: as above; settings: 320 g/ha; for F (Digitaria ciliaris) herbicidal effect grade: foliage application
Outline: as §2

[11] = system: Echinochloa crus-galli var. crus-galli; test: as above; settings: 320 g/ha; for H (Echinochloa crus-galli var. crus-galli) herbicidal effect grade: foliage application
Outline: as §2

[12] = system: Galium spurium; test: as above; settings: 320 g/ha; for Q (Galium spurium) herbicidal effect grade: foliage application
Outline: as §2

[13] = system: Lolium multiflorum Lam.; test: as above; settings: 320 g/ha; for K (Lolium multiflorum Lam.) herbicidal effect grade: foliage application
Outline: as §2

[14] = system: Setaria viridis; test: as above; settings: 320 g/ha; for G (Setaria viridis) herbicidal effect grade: foliage application
Outline: as §2

[15] = system: Stellaria media; test: as above; settings: 320 g/ha; for P (Stellaria media) herbicidal effect grade: foliage application
Outline: as §2

[16] = system: Veronica persica; test: as above; settings: 320 g/ha; for R (Veronica persica) herbicidal effect grade: foliage application
Outline: as §2

[17] = system: Beta vulgaris ssp. vulgaris; test: Test Example 4: effect on crop by application to foliage (diluvial soil, plastic box); settings: 320 g/ha; for f (Beta vulgaris ssp. vulgaris) effect on crop grade: foliage application
Outline: as §2

[18] = system: Brassica campestris L.; test: as above; settings: 320 g/ha; for g (Brassica campestris L.) effect on crop grade: foliage application
Outline: as §2

[19] = system: Glycine max; test: as above; settings: 320 g/ha; for c (Glycine max) effect on crop grade: foliage application
Outline: as §2

[20] = system: Triticum aestivum; test: as above; settings: 320 g/ha; for e (Triticum aestivum) effect on crop grade: foliage application
Outline: as §2

[21] = system: Zea mays; test: as above; settings: 320 g/ha; for b (Zea mays) effect on crop grade: foliage application
Outline: as §2

[22] = system: directly sowed Oryza sativa; test: as above; settings: 320 g/ha; for d (directly sowed Oryza sativa) effect on crop grade: foliage application
Outline: as §2

[23] = application herbicide amount 320 g/ha

Compound: Cn1nnnc1NC(=O)c1ccc(C(F)(F)F)n2c(=O)n(C)nc12 [6-002]
- A (Echinochloa oryzicola Vasing.) herbicidal ratio grade [1, 23]: 4 (Herbicidal ratio of 70% or more and less than 90%)
- C (Monochoria vaginalis) herbicidal ratio grade [2, 23]: 2 (Herbicidal ratio of 20% or more and less than 40%)
- B (Scirpus juncoides) herbicidal ratio grade [3, 23]: 3 (Herbicidal ratio of 40% or more and less than 70%)
- herbicidal effect, M (Abutilon theophrasti) ([4]; application to foliage): 5 (Herbicidal ratio of 90% or more (almost completely withered))
- herbicidal effect, J (Alopecurus myosuroides) ([5]; application to foliage): 0 (Herbicidal ratio of 5% or less (almost no effect))
- herbicidal effect, N (Amaranthus retroflexus) ([6]; application to foliage): 5 (Herbicidal ratio of 90% or more (almost completely withered))
- herbicidal effect, L (Apera spica-venti.) ([7]; application to foliage): 0 (Herbicidal ratio of 5% or less (almost no effect))
- herbicidal effect, I (Avena fatua) ([8]; application to foliage): 1 (Herbicidal ratio of 5% or more and less than 20%)
- herbicidal effect, O (Chenopodium album) ([9]; application to foliage): 5 (Herbicidal ratio of 90% or more (almost completely withered))
- herbicidal effect, F (Digitaria ciliaris) ([10]; application to foliage): 4 (Herbicidal ratio of 70% or more and less than 90%)
- herbicidal effect, H (Echinochloa crus-galli var. crus-galli) ([11]; application to foliage): 5 (Herbicidal ratio of 90% or more (almost completely withered))
- herbicidal effect, Q (Galium spurium) ([12]; application to foliage): 3 (Herbicidal ratio of 40% or more and less than 70%)
- herbicidal effect, K (Lolium multiflorum Lam.) ([13]; application to foliage): 0 (Herbicidal ratio of 5% or less (almost no effect))
- herbicidal effect, G (Setaria viridis) ([14]; application to foliage): 3 (Herbicidal ratio of 40% or more and less than 70%)
- herbicidal effect, P (Stellaria media) ([15]; application to foliage): 5 (Herbicidal ratio of 90% or more (almost completely withered))
- herbicidal effect, R (Veronica persica) ([16]; application to foliage): 4 (Herbicidal ratio of 70% or more and less than 90%)
- effect on crop, f (Beta vulgaris ssp. vulgaris) ([17]; application to foliage): 3 (Herbicidal ratio of 40% or more and less than 70%)
- effect on crop, g (Brassica campestris L.) ([18]; application to foliage): 3 (Herbicidal ratio of 40% or more and less than 70%)
- effect on crop, c (Glycine max) ([19]; application to foliage): 0 (Herbicidal ratio of 5% or less (almost no effect))
- effect on crop, e (Triticum aestivum) ([20]; application to foliage): 0 (Herbicidal ratio of 5% or less (almost no effect))
- effect on crop, b (Zea mays) ([21]; application to foliage): 0 (Herbicidal ratio of 5% or less (almost no effect))
- effect on crop, d (directly sowed Oryza sativa) ([22]; application to foliage): 3 (Herbicidal ratio of 40% or more and less than 70%)

Compound: Cn1nnnc1NC(=O)c1ccc(C(F)(F)F)n2c(-c3ccc(F)cc3)nnc12 [2-043]
- A: Echinochloa oryzicola Vasing. (herbicidal effect grade) [1]: 5 (Herbicidal ratio of 90% or more (almost completely withered))
- C: Monochoria vaginalis (herbicidal effect grade) [2]: 5 (Herbicidal ratio of 90% or more (almost completely withered))
- B: Scirpus juncoides (herbicidal effect grade) [3]: 5 (Herbicidal ratio of 90% or more (almost completely withered))
- M (Abutilon theophrasti) herbicidal effect grade [4]: 5 (Herbicidal ratio of 90% or more (almost completely withered))
- J (Alopecurus myosuroides) herbicidal effect grade [5]: 3 (Herbicidal ratio of 40% or more and less than 70%)
- N (Amaranthus retroflexus) herbicidal effect grade [6]: 5 (Herbicidal ratio of 90% or more (almost completely withered))
- L (Apera spica-venti.) herbicidal effect grade [7]: 4 (Herbicidal ratio of 70% or more and less than 90%)
- I (Avena fatua) herbicidal effect grade [8]: 4 (Herbicidal ratio of 70% or more and less than 90%)
- O (Chenopodium album) herbicidal effect grade [9]: 5 (Herbicidal ratio of 90% or more (almost completely withered))
- F (Digitaria ciliaris) herbicidal effect grade [10]: 5 (Herbicidal ratio of 90% or more (almost completely withered))
- H (Echinochloa crus-galli var. crus-galli) herbicidal effect grade [11]: 5 (Herbicidal ratio of 90% or more (almost completely withered))
- Q (Galium spurium) herbicidal effect grade [12]: 4 (Herbicidal ratio of 70% or more and less than 90%)
- K (Lolium multiflorum Lam.) herbicidal effect grade [13]: 2 (Herbicidal ratio of 20% or more and less than 40%)
- G (Setaria viridis) herbicidal effect grade [14]: 4 (Herbicidal ratio of 70% or more and less than 90%)
- P (Stellaria media) herbicidal effect grade [15]: 5 (Herbicidal ratio of 90% or more (almost completely withered))
- R (Veronica persica) herbicidal effect grade [16]: 5 (Herbicidal ratio of 90% or more (almost completely withered))
- f (Beta vulgaris ssp. vulgaris) effect on crop grade [17]: 5 (Herbicidal ratio of 90% or more (almost completely withered))
- g (Brassica campestris L.) effect on crop grade [18]: 4 (Herbicidal ratio of 70% or more and less than 90%)
- c (Glycine max) effect on crop grade [19]: 1 (Herbicidal ratio of 5% or more and less than 20%)
- e (Triticum aestivum) effect on crop grade [20]: 3 (Herbicidal ratio of 40% or more and less than 70%)
- b (Zea mays) effect on crop grade [21]: 3 (Herbicidal ratio of 40% or more and less than 70%)
- d (directly sowed Oryza sativa) effect on crop grade [22]: 4 (Herbicidal ratio of 70% or more and less than 90%)

Compound: COCCn1nnnc1NC(=O)c1ccc(C(F)(F)F)n2c(C(C)C)nnc12 [2-041]
- A: Echinochloa oryzicola Vasing. (herbicidal effect grade) [1]: 5 (Herbicidal ratio of 90% or more (almost completely withered))
- C: Monochoria vaginalis (herbicidal effect grade) [2]: 4 (Herbicidal ratio of 70% or more and less than 90%)
- B: Scirpus juncoides (herbicidal effect grade) [3]: 5 (Herbicidal ratio of 90% or more (almost completely withered))
- M (Abutilon theophrasti) herbicidal effect grade [4]: 5 (Herbicidal ratio of 90% or more (almost completely withered))
- J (Alopecurus myosuroides) herbicidal effect grade [5]: 3 (Herbicidal ratio of 40% or more and less than 70%)
- N (Amaranthus retroflexus) herbicidal effect grade [6]: 4 (Herbicidal ratio of 70% or more and less than 90%)
- L (Apera spica-venti.) herbicidal effect grade [7]: 4 (Herbicidal ratio of 70% or more and less than 90%)
- I (Avena fatua) herbicidal effect grade [8]: 3 (Herbicidal ratio of 40% or more and less than 70%)
- O (Chenopodium album) herbicidal effect grade [9]: 5 (Herbicidal ratio of 90% or more (almost completely withered))
- F (Digitaria ciliaris) herbicidal effect grade [10]: 4 (Herbicidal ratio of 70% or more and less than 90%)
- H (Echinochloa crus-galli var. crus-galli) herbicidal effect grade [11]: 5 (Herbicidal ratio of 90% or more (almost completely withered))
- Q (Galium spurium) herbicidal effect grade [12]: 4 (Herbicidal ratio of 70% or more and less than 90%)
- K (Lolium multiflorum Lam.) herbicidal effect grade [13]: 3 (Herbicidal ratio of 40% or more and less than 70%)
- G (Setaria viridis) herbicidal effect grade [14]: 3 (Herbicidal ratio of 40% or more and less than 70%)
- P (Stellaria media) herbicidal effect grade [15]: 5 (Herbicidal ratio of 90% or more (almost completely withered))
- R (Veronica persica) herbicidal effect grade [16]: 4 (Herbicidal ratio of 70% or more and less than 90%)
- f (Beta vulgaris ssp. vulgaris) effect on crop grade [17]: 5 (Herbicidal ratio of 90% or more (almost completely withered))
- g (Brassica campestris L.) effect on crop grade [18]: 4 (Herbicidal ratio of 70% or more and less than 90%)
- c (Glycine max) effect on crop grade [19]: 0 (Herbicidal ratio of 5% or less (almost no effect))
- e (Triticum aestivum) effect on crop grade [20]: 3 (Herbicidal ratio of 40% or more and less than 70%)
- b (Zea mays) effect on crop grade [21]: 2 (Herbicidal ratio of 20% or more and less than 40%)
- d (directly sowed Oryza sativa) effect on crop grade [22]: 4 (Herbicidal ratio of 70% or more and less than 90%)
